Experiments:
FLT3-D835Y = target: T1, FLT3-D835Y (Homo sapiens, UniProt P36888, D835Y); test: FLT3-D835Y biochemical kinase assay (AlphaScreen)
T1 construct: purchased Invitrogen PV3967
T1 sequence (P36888 27-993 D835Y): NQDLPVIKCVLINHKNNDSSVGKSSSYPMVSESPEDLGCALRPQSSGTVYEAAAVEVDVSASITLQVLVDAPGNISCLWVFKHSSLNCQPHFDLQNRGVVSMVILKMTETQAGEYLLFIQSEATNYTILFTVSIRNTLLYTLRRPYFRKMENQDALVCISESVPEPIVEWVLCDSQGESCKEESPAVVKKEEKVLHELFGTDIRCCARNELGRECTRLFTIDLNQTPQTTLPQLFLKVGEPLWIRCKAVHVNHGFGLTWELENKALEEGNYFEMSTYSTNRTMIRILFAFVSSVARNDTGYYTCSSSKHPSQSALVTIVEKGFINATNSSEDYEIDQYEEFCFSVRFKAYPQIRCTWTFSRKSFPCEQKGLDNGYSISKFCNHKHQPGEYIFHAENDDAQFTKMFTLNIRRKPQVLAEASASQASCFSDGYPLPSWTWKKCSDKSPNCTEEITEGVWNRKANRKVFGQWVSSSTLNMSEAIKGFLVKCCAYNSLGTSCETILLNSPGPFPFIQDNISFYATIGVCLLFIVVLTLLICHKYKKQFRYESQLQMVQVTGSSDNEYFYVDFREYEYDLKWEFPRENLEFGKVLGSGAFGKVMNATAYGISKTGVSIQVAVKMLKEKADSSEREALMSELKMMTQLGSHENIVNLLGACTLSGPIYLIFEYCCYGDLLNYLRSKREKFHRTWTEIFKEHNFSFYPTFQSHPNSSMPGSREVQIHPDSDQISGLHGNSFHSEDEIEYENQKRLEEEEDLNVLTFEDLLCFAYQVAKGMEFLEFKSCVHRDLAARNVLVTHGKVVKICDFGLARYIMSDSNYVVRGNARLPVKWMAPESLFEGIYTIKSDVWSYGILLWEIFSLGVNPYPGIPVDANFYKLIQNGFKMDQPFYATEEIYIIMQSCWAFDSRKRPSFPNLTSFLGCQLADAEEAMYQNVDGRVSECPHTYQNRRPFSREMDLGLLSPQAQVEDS
Description: (§1) In order to determine the effect of compounds on FLT3 catalytic activity, kinase assays using recombinant enzymes and AlphaScreen® technology have been established. When the kinases are catalytically active, they phosphorylate a biotinylated peptide substrate on tyrosine residues. Using AlphaScreen® technology, the ability of the compounds to affect the catalytic activity of the kinases can be measured quantitatively. The peptide substrate is immobilized by the AlphaScreen® Streptavidin Donor beads and, upon phosphorylation by a tyrosine kinase, can bind to AlphaScreen® Anti-Phosphotyrosine (PY20) Acceptor beads. Upon excitation of these beads with laser light at 680 nm, singlet oxygen is produced. This singlet oxygen is rapidly quenched, unless the AlphaScreen® Anti-Phosphotyrosine (PY20) Acceptor beads are in close proximity, in which case a proximity signal can be measured at 580 nm. In the presence of catalytic activity, there is a very strong proximity signal. Selective kinase inhibitors affect a decrease in this proximity signal through a decrease in tyrosine phosphorylation of the peptide substrate.
(§2) Substrate • Poly (Glu4-Tyr) Peptide, biotin conjugate [Biotin-GG(EEEEY)10EE (SEQ ID NO: 4)] • UBI/Millipore #12-440 • Final concentration=30 nM
(§3) Adenosine Triphosphate (ATP) • Sigma #A-3377 • Final concentration for IC50 determination=10 μM (FLT3-D835Y) or 100 μM (FLT3 or FLT3-ITD) • Detection Reagent • AlphaScreen® Phosphotyrosine (PY20) Assay Kit • Perkin-Elmer #6760601M • Final concentration=10 μg/mL
(§4) Centrifuge 1 minute, shake to mix, and incubate as follows:
(§5) • Mix Streptavidin Donor beads at 6× final concentration in Stop/Detection buffer. • Add 5 μL Streptavidin Donor beads to the reaction plate. Centrifuge 1 minute, shake to mix, and incubate at room temperature for 20 minutes. • Mix Anti-Phosphotyrosine (PY20) Acceptor beads at 6× final concentration in Stop/Detection buffer. • Add 5 μL Anti-Phosphotyrosine (PY20) beads to the reaction plate. • Centrifuge 1 minute, shake to mix, and incubate at room temperature for 60 minutes. • Read plate on Wallac EnVision™ 2103 Multilabel Reader. In Vivo Model System Testing

FLT3-ITD = target: T2, FLT3-ITD (Homo sapiens, UniProt P36888); test: FLT3-ITD biochemical kinase assay (AlphaScreen)
T2 construct: FLT3-ITD; Invitrogen #PV6190
T2 sequence (P36888 1-993): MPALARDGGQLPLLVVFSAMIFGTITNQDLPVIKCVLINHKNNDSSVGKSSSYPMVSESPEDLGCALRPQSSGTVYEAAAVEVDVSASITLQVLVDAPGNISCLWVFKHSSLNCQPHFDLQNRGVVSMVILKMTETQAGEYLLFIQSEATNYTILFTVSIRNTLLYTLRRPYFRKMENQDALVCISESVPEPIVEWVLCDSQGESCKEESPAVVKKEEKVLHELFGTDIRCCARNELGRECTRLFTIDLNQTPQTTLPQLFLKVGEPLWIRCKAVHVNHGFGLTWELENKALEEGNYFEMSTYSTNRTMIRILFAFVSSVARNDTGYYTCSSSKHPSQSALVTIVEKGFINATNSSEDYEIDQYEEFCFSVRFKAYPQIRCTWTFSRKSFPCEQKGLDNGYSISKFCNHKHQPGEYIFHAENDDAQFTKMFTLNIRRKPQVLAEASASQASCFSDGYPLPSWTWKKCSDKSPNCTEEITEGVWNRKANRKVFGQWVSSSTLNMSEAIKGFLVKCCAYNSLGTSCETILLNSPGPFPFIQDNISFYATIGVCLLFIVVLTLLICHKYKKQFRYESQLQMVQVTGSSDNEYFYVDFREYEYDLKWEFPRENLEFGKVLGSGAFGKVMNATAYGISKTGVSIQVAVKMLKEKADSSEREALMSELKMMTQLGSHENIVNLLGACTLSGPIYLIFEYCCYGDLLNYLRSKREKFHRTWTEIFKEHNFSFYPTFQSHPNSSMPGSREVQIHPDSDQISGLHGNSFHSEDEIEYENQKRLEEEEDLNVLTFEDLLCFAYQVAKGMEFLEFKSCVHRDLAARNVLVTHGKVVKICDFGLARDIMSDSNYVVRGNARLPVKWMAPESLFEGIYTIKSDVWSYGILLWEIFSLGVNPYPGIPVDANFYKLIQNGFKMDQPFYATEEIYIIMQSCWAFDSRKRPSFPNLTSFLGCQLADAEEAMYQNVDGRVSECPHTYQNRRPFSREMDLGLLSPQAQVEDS
Description: as §1, §2, §3, §4, §5

Compound | IC50 (FLT3-D835Y) | IC50 (FLT3-ITD)
CC(C)(C)n1cnc2ccc(-c3c[nH]c4ncc(-c5cccc(OC(F)(F)F)c5)cc34)cc21 [P-202, 1-tert-butyl-6-[5-[3-(trifluoromethoxy)phenyl]-1H-pyrrolo[2,3-b]pyridin-3-yl]benzimidazole] | 0.0001 to 1 µM | 0.0001 to 1 µM
Cn1cnc2ccc(-c3c[nH]c4ncc(-c5cccc(N6CCCS6(=O)=O)c5)nc34)cc21 [P-153, 2-[3-[7-(3-methylbenzimidazol-5-yl)-5H-pyrrolo[2,3-b]pyrazin-2-yl]phenyl]-1,2-thiazolidine 1,1-dioxide] | 0.0001 to 1 µM | 0.0001 to 1 µM
Cn1cnc2ccc(-c3c[nH]c4ncc(-c5cccc(C#N)c5)nc34)cc21 [P-146, 3-[7-(3-methylbenzimidazol-5-yl)-5H-pyrrolo[2,3-b]pyrazin-2-yl]benzonitrile] | 0.0001 to 1 µM | 0.0001 to 1 µM
CC(C)(C)n1cnc2ccc(-c3c[nH]c4ncc(-c5ccc(C#N)c(N6CCCC6)c5)nc34)cc21 [P-335, 4-[7-(3-tert-butylbenzimidazol-5-yl)-5H-pyrrolo[2,3-b]pyrazin-2-yl]-2-pyrrolidin-1-yl-benzonitrile] | 0.0001 to 1 µM | 0.0001 to 1 µM
CC(C)(C)n1cnc2ccc(-c3c[nH]c4ncc(-c5ccc(S(=O)(=O)N6CCCC6)cc5)nc34)cc21 [P-239, 7-(3-tert-butylbenzimidazol-5-yl)-2-(4-pyrrolidin-1-ylsulfonylphenyl)-5H-pyrrolo[2,3-b]pyrazine] | 0.0001 to 1 µM | 0.0001 to 1 µM
N#Cc1cccc(S(=O)(=O)Nc2cnc3[nH]cc(-c4ccc5ncn(C6CCCNC6)c5c4)c3c2)c1 (stereo not shown) [P-234, 3-cyano-N-[3-[3-(3-piperidyl)benzimidazol-5-yl]-1H-pyrrolo[2,3-b]pyridin-5-yl]benzenesulfonamide] | 0.0001 to 1 µM | 0.0001 to 1 µM
CC(C)(C)n1cnc2ccc(-c3c[nH]c4ncc(C#Cc5ccccc5)nc34)cc21 [P-142, 7-(3-tert-butylbenzimidazol-5-yl)-2-(2-phenylethynyl)-5H-pyrrolo[2,3-b]pyrazine] | 0.0001 to 1 µM | 0.0001 to 1 µM
COc1cc(-c2cnc3[nH]cc(-c4ccc5ncn(C6CCCC6)c5c4)c3n2)ccn1 [P-114, 7-(3-cyclopentylbenzimidazol-5-yl)-2-(2-methoxy-4-pyridyl)-5H-pyrrolo[2,3-b]pyrazine] | 0.0001 to 1 µM | 0.0001 to 1 µM
CC(=O)Nc1cccc(-c2cnc3[nH]cc(-c4ccc5ncsc5c4)c3n2)c1 [P-159, N-[3-[7-(1,3-benzothiazol-6-yl)-5H-pyrrolo[2,3-b]pyrazin-2-yl]phenyl]acetamide] | 0.0001 to 1 µM | 0.0001 to 1 µM
CC(C)(C)n1cnc2ccc(-c3c[nH]c4ncc(-c5cnc(NC6CC6)nc5)nc34)cc21 [P-362, 5-[7-(3-tert-butylbenzimidazol-5-yl)-5H-pyrrolo[2,3-b]pyrazin-2-yl]-N-cyclopropyl-pyrimidin-2-amine] | 0.0001 to 1 µM | 0.0001 to 1 µM
N#Cc1cccc(-c2cnc3[nH]cc(-c4ccc5ncsc5c4)c3n2)c1 [P-181, 3-[7-(1,3-benzothiazol-6-yl)-5H-pyrrolo[2,3-b]pyrazin-2-yl]benzonitrile] | 0.0001 to 1 µM | 0.0001 to 1 µM
CC(C)(C)n1cnc2ccc(-c3c[nH]c4ncc(-c5cnc(C6CC6)nc5)nc34)cc21 [P-342, 7-(3-tert-butylbenzimidazol-5-yl)-2-(2-cyclopropylpyrimidin-5-yl)-5H-pyrrolo[2,3-b]pyrazine] | 0.0001 to 1 µM | 0.0001 to 1 µM
COc1cc(-c2cnc3[nH]cc(-c4ccc5ncn(-c6ccc(F)cc6)c5c4)c3n2)ccn1 [P-206, 7-[3-(4-fluorophenyl)benzimidazol-5-yl]-2-(2-methoxy-4-pyridyl)-5H-pyrrolo[2,3-b]pyrazine] | 0.0001 to 1 µM | 0.0001 to 1 µM
COc1cccc(-c2cnc3[nH]cc(-c4ccc5ncsc5c4)c3n2)c1 [P-158, 6-[2-(3-methoxyphenyl)-5H-pyrrolo[2,3-b]pyrazin-7-yl]-1,3-benzothiazole] | 0.0001 to 1 µM | 0.0001 to 1 µM
O=C(C1CC1)N1CC=C(c2cnc3[nH]cc(-c4ccc5ncn(C6CCCNC6)c5c4)c3n2)C1 (stereo not shown) [P-137, cyclopropyl-[3-[7-[3-(3-piperidyl)benzimidazol-5-yl]-5H-pyrrolo[2,3-b]pyrazin-2-yl]-2,5-dihydropyrrol-1-yl]methanone] | 0.0001 to 1 µM | 0.0001 to 1 µM
CCCS(=O)(=O)Nc1cccc(-c2cnc3[nH]cc(-c4ccc5ncsc5c4)c3n2)c1 [P-168, N-[3-[7-(1,3-benzothiazol-6-yl)-5H-pyrrolo[2,3-b]pyrazin-2-yl]phenyl]propane-1-sulfonamide] | 0.0001 to 1 µM | 0.0001 to 1 µM
Fc1ccc(-n2cnc3ccc(-c4c[nH]c5ncc(-c6cccc(OC(F)(F)F)c6)cc45)cc32)cc1 [P-204, 1-(4-fluorophenyl)-6-[5-[3-(trifluoromethoxy)phenyl]-1H-pyrrolo[2,3-b]pyridin-3-yl]benzimidazole] | 0.0001 to 1 µM | 0.0001 to 1 µM
Cn1cnc2ccc(-c3c[nH]c4ncc(-c5ccc(C#N)s5)cc34)cc21 [P-179, 5-[3-(3-methylbenzimidazol-5-yl)-1H-pyrrolo[2,3-b]pyridin-5-yl]thiophene-2-carbonitrile] | 0.0001 to 1 µM | 0.0001 to 1 µM
Cn1cnc2ccc(-c3c[nH]c4ncc(-c5cccc(CC(=O)O)c5)cc34)cc21 [P-185, 2-[3-[3-(3-methylbenzimidazol-5-yl)-1H-pyrrolo[2,3-b]pyridin-5-yl]phenyl]acetic acid] | 0.0001 to 1 µM | 0.0001 to 1 µM
CC(C)n1cnc2ccc(-c3c[nH]c4ncc(-c5cccc(NS(C)(=O)=O)c5)nc34)cc21 [P-080, N-[3-[7-(3-isopropylbenzimidazol-5-yl)-5H-pyrrolo[2,3-b]pyrazin-2-yl]phenyl]methanesulfonamide] | 0.0001 to 1 µM | 0.0001 to 1 µM

Source: US10160755B2 (Plexxikon Inc., priority 2015, dated 2018)
